In article PMC8002452, “Molecular Basis of AmpC β-Lactamase Induction by Avibactam in Pseudomonas aeruginosa: PBP Occupancy, Live Cell Binding Dynamics and Impact on Resistant Clinical Isolates Harboring PDC-X Variants” (International Journal of Molecular Sciences, 2021):

What was measured:
[1] = test system: ampC mRNA in wild-type PAO1; assay: qRT-PCR quantification of AmpC induction; assay type: cell-based, P. aeruginosa; details: IPM 8, FOX 64, AVI 16 µg/mL, relative to strain basal t=0
Description: (§1) Samples were taken at 0, 30 and 180 min. Total RNA was extracted with the RNeasy Mini Kit (Qiagen, Hilden, Germany) and treated with TURBO DNase (Thermo Fisher Scientific, Waltham, MA, USA) to remove contaminating DNA. Samples were afterwards normalized to 50 ng/µL.
(§2) Normalized samples were then used for one-step reverse transcription and real-time PCR amplification using the QuantiTect SYBR green qRT-PCR kit (Qiagen, Hilden, Germany) in a CFX Connect Real-Time PCR System (Bio-Rad, Hercules, California, USA). Previously described primer pairs ACrnaF/ACrnaR and rpsL-1/rpsL-2 were used for the amplification of ampC and housekeeping gene rpsL, respectively. The mean values of relative mRNA expression (2^−ΔΔCt) obtained from at least two independent biological replicates and duplicate technical replicates were considered.

[2] = test system: ampC mRNA in 103-H8 (AmpC E247K; PDC-221, CAZ/AVI-resistant ST175 clinical isolate); assay: qRT-PCR quantification of AmpC induction; assay type: cell-based, P. aeruginosa; details: IPM 8, FOX 64, AVI 16 µg/mL, relative to strain basal t=0
Description: as §1, §2

[3] = test system: ampC mRNA in 110-G8 (AmpC DelG229–E247; PDC-223, CAZ/AVI-resistant ST175 clinical isolate); assay: qRT-PCR quantification of AmpC induction; assay type: cell-based, P. aeruginosa; details: IPM 8, FOX 64, AVI 16 µg/mL, relative to strain basal t=0
Description: as §1, §2

[4] = test system: ampC mRNA in 109-E9 (CAZ/AVI-sensitive ST175 clinical isolate); assay: qRT-PCR quantification of AmpC induction; assay type: cell-based, P. aeruginosa; details: IPM 8, FOX 64, AVI 16 µg/mL, relative to strain basal t=0
Description: as §1, §2

[5] = test system: ampC mRNA in 101-E5 (CAZ/AVI-sensitive ST175 clinical isolate); assay: qRT-PCR quantification of AmpC induction; assay type: cell-based, P. aeruginosa; details: IPM 8, FOX 64, AVI 16 µg/mL, relative to strain basal t=0
Description: as §1, §2

PBP2 = target: T1, PBP2 (Pseudomonas aeruginosa, UniProt Q9X6V3); assay: PBP-binding affinity (IC50), bocillin FL, isolated membranes; parameters: species or system P. aeruginosa PAO1; details: PAO1 membranes 0.5 mg/mL, 30 min, 25 µM bocillin FL; read-out: Mean IC50 ± SD, PBP 2 (converted)
T1 construct: PBP-containing membranes were isolated by ultracentrifugation; endogenous in cells; host or cells: P. aeruginosa PAO1 wild type (membrane preparations or intact cells)
Description: (§3) PBP-binding affinity was determined using previously described methods. Briefly, P. aeruginosa PAO1 cultures grown to the midexponential phase (7.6 log10 CFU/mL) were incubated in CAMHB at 37 °C and 180 rpm, washed and centrifuged (3220× g for 10 min at 4 °C). Bacterial pellets were washed in 30 mL of PBS buffer (pH 7.5), resuspended in 10 mL of PBS and sonicated at 40% amplitude for three 2 min bursts (while immersed in an ice bath) and centrifuged at 3220× g for 15 min at 4 °C. PBP-containing membranes were isolated by ultracentrifugation at 150,000× g for 30 min at 4 °C. Total protein concentrations were measured through the Bradford method.
(§4) Subsequently, the fluorescent penicillin bocillin FL was added to a 25 μM final concentration. Labeled PBPs were denatured and separated through 4–15% SDS–polyacrylamide gel electrophoresis. Labeled PBPs were visualized using a Typhoon FLA 9500 biomolecular imager (GE Healthcare Bio-Sciences AB, Uppsala, Sweden) (excitation at 488 nm and emission at 530 nm), and binding was determined from at least three independent experiments using ImageQuant TL software v8.1.0.0 (GE Healthcare Bio-Sciences AB, Uppsala, Sweden).

PBP4 = PBP4 (Pseudomonas aeruginosa, UniProt Q9HZG1); assay: as above; parameters: species or system P. aeruginosa PAO1; details: PAO1 membranes 0.5 mg/mL, 30 min, 25 µM bocillin FL; read-out: Mean IC50 ± SD, PBP 4 (converted)
Description: as §3, §4

PBP1a = target: T2, PBP1a (Pseudomonas aeruginosa, UniProt Q07806); assay: as above; parameters: species or system P. aeruginosa PAO1; details: PAO1 membranes 0.5 mg/mL, 30 min, 25 µM bocillin FL
T2 construct: PBP-containing membranes were isolated by ultracentrifugation; endogenous in cells; host or cells: P. aeruginosa PAO1 wild type (membrane preparations or intact cells)
Description: as §3, §4

PBP5/6 = PBP5/6 (Pseudomonas aeruginosa, UniProt G3XD74); assay: as above; parameters: species or system P. aeruginosa PAO1; details: PAO1 membranes 0.5 mg/mL, 30 min, 25 µM bocillin FL; read-out: Mean IC50 ± SD, PBP 5/6 (converted)
Description: as §3, §4

PBP1b = PBP1b (Pseudomonas aeruginosa, UniProt G3XD31); assay: as above; parameters: species or system P. aeruginosa PAO1; details: PAO1 membranes 0.5 mg/mL, 30 min, 25 µM bocillin FL; read-out: Mean IC50 ± SD, PBP 1b (converted)
Description: as §3, §4

T2 sequence (Q07806 whole entry): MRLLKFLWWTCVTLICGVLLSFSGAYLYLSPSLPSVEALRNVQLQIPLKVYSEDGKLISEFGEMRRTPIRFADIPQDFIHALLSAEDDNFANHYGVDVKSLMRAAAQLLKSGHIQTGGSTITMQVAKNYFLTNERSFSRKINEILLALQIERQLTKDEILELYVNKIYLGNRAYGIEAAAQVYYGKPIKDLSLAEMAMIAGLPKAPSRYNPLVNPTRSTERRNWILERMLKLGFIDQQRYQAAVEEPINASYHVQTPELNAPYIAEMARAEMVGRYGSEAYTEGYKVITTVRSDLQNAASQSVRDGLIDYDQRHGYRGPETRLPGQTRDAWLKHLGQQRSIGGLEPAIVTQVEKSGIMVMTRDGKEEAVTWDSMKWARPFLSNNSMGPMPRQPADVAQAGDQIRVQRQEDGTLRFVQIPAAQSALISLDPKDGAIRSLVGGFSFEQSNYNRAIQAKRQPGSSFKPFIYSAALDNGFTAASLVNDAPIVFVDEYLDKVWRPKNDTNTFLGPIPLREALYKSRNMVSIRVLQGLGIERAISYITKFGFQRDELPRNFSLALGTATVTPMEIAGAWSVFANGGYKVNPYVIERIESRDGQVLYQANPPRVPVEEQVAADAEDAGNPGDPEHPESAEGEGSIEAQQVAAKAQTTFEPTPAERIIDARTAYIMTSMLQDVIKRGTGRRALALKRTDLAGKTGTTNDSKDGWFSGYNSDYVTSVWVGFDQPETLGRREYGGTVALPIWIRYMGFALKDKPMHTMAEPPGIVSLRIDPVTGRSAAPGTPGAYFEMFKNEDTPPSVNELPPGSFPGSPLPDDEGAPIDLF
T1 sequence (Q9X6V3 entry or part of it): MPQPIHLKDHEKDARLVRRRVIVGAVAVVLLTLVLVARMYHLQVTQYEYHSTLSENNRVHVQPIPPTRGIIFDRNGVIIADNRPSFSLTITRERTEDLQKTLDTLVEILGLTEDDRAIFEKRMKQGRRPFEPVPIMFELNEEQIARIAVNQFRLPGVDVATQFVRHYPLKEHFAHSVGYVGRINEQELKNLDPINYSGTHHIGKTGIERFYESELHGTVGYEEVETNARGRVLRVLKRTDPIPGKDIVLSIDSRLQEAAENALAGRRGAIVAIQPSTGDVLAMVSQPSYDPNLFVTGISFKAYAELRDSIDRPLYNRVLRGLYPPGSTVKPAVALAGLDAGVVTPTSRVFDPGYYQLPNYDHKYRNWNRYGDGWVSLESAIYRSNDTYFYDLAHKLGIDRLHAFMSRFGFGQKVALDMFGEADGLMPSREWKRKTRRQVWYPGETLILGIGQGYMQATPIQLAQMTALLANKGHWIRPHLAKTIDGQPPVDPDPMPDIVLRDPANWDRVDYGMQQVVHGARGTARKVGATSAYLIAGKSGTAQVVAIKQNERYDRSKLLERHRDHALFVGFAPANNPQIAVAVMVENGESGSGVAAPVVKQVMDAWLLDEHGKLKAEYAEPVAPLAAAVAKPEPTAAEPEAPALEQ
Chain of PBP5/6 (G3XD74 entry or part of it): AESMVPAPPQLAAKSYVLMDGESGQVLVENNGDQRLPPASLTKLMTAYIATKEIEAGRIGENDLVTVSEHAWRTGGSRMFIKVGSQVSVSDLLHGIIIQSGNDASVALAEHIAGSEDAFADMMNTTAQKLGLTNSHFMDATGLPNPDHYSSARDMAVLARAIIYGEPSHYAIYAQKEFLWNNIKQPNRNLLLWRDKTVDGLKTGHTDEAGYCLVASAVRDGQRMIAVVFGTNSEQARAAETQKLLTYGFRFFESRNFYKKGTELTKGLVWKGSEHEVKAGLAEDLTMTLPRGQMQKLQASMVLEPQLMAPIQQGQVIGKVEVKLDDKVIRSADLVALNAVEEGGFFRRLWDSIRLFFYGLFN
Chain of PBP1b (G3XD31 entry or part of it): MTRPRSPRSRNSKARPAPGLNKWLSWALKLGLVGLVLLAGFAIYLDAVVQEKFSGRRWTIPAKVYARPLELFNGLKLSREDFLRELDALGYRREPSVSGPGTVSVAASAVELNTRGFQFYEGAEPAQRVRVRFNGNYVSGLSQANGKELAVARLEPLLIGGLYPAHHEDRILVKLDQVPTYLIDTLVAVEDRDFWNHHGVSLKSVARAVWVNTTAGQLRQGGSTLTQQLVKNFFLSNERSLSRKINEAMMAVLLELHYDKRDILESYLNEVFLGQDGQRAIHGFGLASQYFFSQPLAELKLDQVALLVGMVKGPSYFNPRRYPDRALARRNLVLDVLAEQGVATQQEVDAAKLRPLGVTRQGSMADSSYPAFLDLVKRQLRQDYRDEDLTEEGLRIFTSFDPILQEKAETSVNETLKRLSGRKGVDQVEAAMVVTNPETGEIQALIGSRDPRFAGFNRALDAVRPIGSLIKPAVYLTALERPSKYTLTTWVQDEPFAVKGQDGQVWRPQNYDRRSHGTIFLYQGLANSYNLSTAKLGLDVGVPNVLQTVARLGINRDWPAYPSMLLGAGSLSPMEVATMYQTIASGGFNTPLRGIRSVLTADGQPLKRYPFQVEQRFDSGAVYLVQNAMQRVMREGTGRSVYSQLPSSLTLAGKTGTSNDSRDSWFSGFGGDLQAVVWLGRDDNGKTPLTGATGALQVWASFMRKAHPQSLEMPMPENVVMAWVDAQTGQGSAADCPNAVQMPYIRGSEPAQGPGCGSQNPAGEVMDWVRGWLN
Chain of PBP4 (Q9HZG1 entry or part of it): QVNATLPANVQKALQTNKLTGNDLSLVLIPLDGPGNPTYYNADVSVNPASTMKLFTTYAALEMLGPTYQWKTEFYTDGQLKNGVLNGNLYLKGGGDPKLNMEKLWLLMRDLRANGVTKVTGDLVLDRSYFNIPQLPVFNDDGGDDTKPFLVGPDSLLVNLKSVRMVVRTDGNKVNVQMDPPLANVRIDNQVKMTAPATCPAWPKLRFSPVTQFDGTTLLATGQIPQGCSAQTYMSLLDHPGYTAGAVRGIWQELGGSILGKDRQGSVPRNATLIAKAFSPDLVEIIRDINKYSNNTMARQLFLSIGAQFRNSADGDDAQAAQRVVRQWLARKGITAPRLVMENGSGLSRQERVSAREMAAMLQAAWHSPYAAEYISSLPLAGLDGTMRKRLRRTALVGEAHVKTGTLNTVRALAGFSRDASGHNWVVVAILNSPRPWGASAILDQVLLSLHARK

SMILES: NC(=O)[C@@H]1CC[C@@H]2CN1C(=O)N2OS(=O)(=O)O [Avibactam]
- Relative ampC expression ([1]; PAO1, 0 min): 1.1
- Relative ampC expression ([1]; PAO1, 30 min): 5.8
- Relative ampC expression ([1]; PAO1, 180 min): 60.6 ± 25.2
- Relative ampC expression ([1]; PAO1, 180 min, listed as AVI): 60.6
- Relative ampC expression ([2]; 103-H8, 0 min): 1.4
- Relative ampC expression ([2]; 103-H8, 30 min): 2.1
- Relative ampC expression ([2]; 103-H8, 180 min): 6.9
- Relative ampC expression ([3]; 110-G8, 0 min): 3.3
- Relative ampC expression ([3]; 110-G8, 30 min): 2.6
- Relative ampC expression ([3]; 110-G8, 180 min): 8.7
- Relative ampC expression ([4]; 109-E9, 0 min): 0.9
- Relative ampC expression ([4]; 109-E9, 30 min): 1.5
- Relative ampC expression ([4]; 109-E9, 180 min): 6.2
- Relative ampC expression ([5]; 101-E5, 0 min): 1.2
- Relative ampC expression ([5]; 101-E5, 30 min): 0.5
- Relative ampC expression ([5]; 101-E5, 180 min): 3.1
- IC50 (PBP2): 15.8 µM
- IC50 (PBP4): 11.7 µM
- Mean IC50 ± SD, PBP 1a (PBP1a): no PBP1a and 3 binding was detected
- IC50 (PBP1a; read-out: Mean IC50 ± SD, PBP 1a (converted)): > 121 µM
- IC50 (PBP5/6): 8.29 µM
- IC50 (PBP1b): 13.6 µM
